{"source": "patent US10717720B2", "about": "“Modified compound of andrographolide” (Heilongjiang Zhenbaodao Pharmaceutical Co., Ltd., priority 2015, dated 2020)"}
{"system": "LPS-induced IL-6 release level from THP-1 cells", "assay": "Test of IL-6 release from THP-1 cells (LPS-induced, IL-6 in supernatant detected by CBA)", "assay_type": "cell-based", "settings": "Homo sapiens; inflammatory factor IL-6 detected by CBA; compound 10 uM; LPS-stimulated THP-1 cells, supernatant after 24 hours; read-out: Inhibition rate @ 10 uM", "procedure,_shortened": "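THP-1 cells were treated with compound at final 30, 10, 3 and 1 uM, with dexamethasone 100 nM as reference, then stimulated with LPS. The LPS working solution was 800 ng/ml. After 24 h at 37 °C, IL-6 in the supernatant was measured by CBA.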", "units": {"inhibition at 10 µM": "%"}}
{"smiles": "C=C1CCC2[C@]3(C)CO[C@@H](C4CCCC4)O[C@@H]3CC[C@@]2(C)[C@@H]1CCOC1CCN(CCO)CC1", "note": "(stereo partly drawn) [Compound 482, 2-(4-(2-((3R,4aR,6aS,7R,10bR)-3-cyclopentyl-6a,10b-dimethyl-8-dihydromethylenedecahydro-1H-naphtho[2,1-d][1,3]dioxin-7-yl)ethoxy)piperidine-1-yl)ethanol]", "inhibition at 10 µM": "> 60"}
{"smiles": "C=C1CCC2[C@]3(C)CO[C@@H](C4CCCC4)O[C@@H]3CC[C@@]2(C)[C@@H]1CCOC1CCN(CC(F)(F)F)CC1", "note": "(stereo partly drawn) [Compound 483, 4-(2-((3R,4aR,6aS,7R,10bR)-3-cyclopentyl-6a,10b-dimethyl-8-dihydromethylenedecahydro-1H-naphtho[2,1-d][1,3]dioxin-7-yl)ethoxy)-1-(2,2,2,-trifluoroethyl)piperidine]", "inhibition at 10 µM": "30 to 60"}
{"smiles": "C=C1CCC2[C@]3(C)CO[C@@H](C4CCCC4)O[C@@H]3CC[C@@]2(C)[C@@H]1CCOC1CCN(S(=O)(=O)C2CC2)CC1", "note": "(stereo partly drawn) [Compound 484, 4-(2-((3R,4aR,6aS,7R,10bR)-3-cyclopentyl-6a,10b-dimethyl-8-dihydromethylene-decahydro-1H-naphtho[2,1-d][1,3]dioxin-7-yl)ethoxyl)-1-(cyclopropylsulfonyl)piperidine]", "inhibition at 10 µM": "> 60"}
